Experimental findings from article PMC9358547 (2022) are described below.

In test [1] the test system is HTPu-var-1-G4 (human telomere variant-1, 23-mer) (DNA, G4) TAGGGTTAGGGTTAGGGTTAGGG
The experiment in a line: circular dichroism titration. Conditions: 30 mM sodium cacodylate pH 7.0, 0.5 mM EDTA, 6 μM DNA, apparent constant. On the technique in general: Circular dichroism is widely used to follow secondary structure.

For test [2] the test system is unchanged. The experiment in a line: UV melting at 295 nm. Conditions: 30 mM sodium cacodylate pH 7.0, 0.5 mM EDTA, 4 μM DNA.
The test system is the same in test [3]. The experiment in a line: tryptophan fluorescence quenching titration. The note with it: 30 mM buffer pH 7.0, 0.5 mM EDTA, 25 °C, 4 μM peptide titrated with DNA.
Test [4] has the same test system. The experiment in a line: electrophoretic mobility shift assay with complementary strand HTPy-var-1. Conditions: 100 mM K+; 30 mM sodium cacodylate pH 7.0, 1 mM EDTA; DNA:peptide 1:120, 1:160; excess HTPy-var-1 added afterwards. On the technique in general: A gel shift assay detects complexes by their altered migration in electrophoresis.

Usually ΔTm stands for the shift of the melting midpoint relative to a reference. For the substance H-VAQKW-OH, the Kb in test [1] (100 mM K+) was determined as 290 ± 10 µM; in test [1] (100 mM Na+), 260 ± 30 µM; in test [3] (100 mM K+), 0.71 ± 0.42 µM; in test [3] (100 mM Na+), 0.46 ± 0.11 µM. In addition, the ΔTm in test [2] (100 mM K+, DNA:peptide 1:40, non-monotonic (66.1 at 1:80)) was -1.0 °C; in test [2] (100 mM Na+, DNA:peptide 1:230), -0.9 °C. The binding entry in test [4] was “yes”.
